Series [1] can be described thus: Pharmacokinetics, blood samples (Example 17). The following applies: 0.5 h after i.p. injection of THC or THC-d5, label = analyte; for Component in the blood, Average: n=6 (THC-d5 n=5). Here is the method: The pharmacokinetics of 9-CD3-(8-D2)-THC compared to natural THC was evaluated using both intraperitoneal i.p. injection and an oral gavage administration for each material. The mice were divided into four groups containing 6 mice (24 mice total). For each group of mice, a blood sample was withdrawn at baseline (t=0), and half-hour intervals (t=0.5, 2 and 5 h) after administration of the drug. Three mice, half of each group, were euthanized with CO2 after 5 h and their organs (brain and liver) were collected. From the second half of each group, another blood sample was withdrawn 24 h after administration, and then these animals were euthanized and the brain and liver were collected for analysis.

Series [2] is described as follows: Pharmacokinetics, liver samples (Example 17). In kind it is in vivo, mice. The following applies: label = analyte; for Component in the liver, Average: n=3.
Series [3] can be described thus: Persistence over time, blood samples (Example 18). The following applies: label = analyte. Type of series: in vivo, mice. On the procedure:
(§1) Blood samples from each mouse were collected at each time point for the pharmacokinetics tests. For 6 h after administrating of all tested drugs, and after testing their WRL on the hot plate, half the mice (n=3) of each group were sacrificed, and the liver and brain of each animal were taken for pharmacokinetics tests. From the remaining mice, blood samples were acquired at 12 h after administration for pharmacokinetics tests. At 24 h after drug administration, and after checking the WRL again, second half of each group of mice were sacrificed, and the liver and brain of each animal were taken for pharmacokinetics tests.

Series [4] is described as follows: Persistence over time, brain samples postmortem (Example 18). Type of series: in vivo, mice. To be noted: 8 mg/kg administered, died at 6 h; number in brackets = mice with a value. On the procedure: as §1
(§2) All the results of the brain and liver samples, which were taken postmortem 6 h or 24 h after administration (n=3) are summarized in Tables 12-13.

Series [5] is described as follows: Persistence over time, liver samples postmortem (Example 18). Type of series: in vivo, mice. On the procedure: as §1, §2
The mark [6] stands for this setting: 5 h after oral gavage administration of THC or THC-d5.
Setting [7] is: 24 h after i.p. injection of THC or THC-d5.
[8] abbreviates: 4 mg/kg administration of THC or THC-d5, Time 0.5 h.
[9] abbreviates: 4 mg/kg administration, Time 3 h.
Where [10] appears, read: 8 mg/kg administration of THC or THC-d5, Time 0.5 h.
Setting [11] is: 8 mg/kg administration, Time 3 h.
The mark [12] stands for this setting: 2 mg/kg administered, died at 6 h.
The mark [13] stands for this setting: 4 mg/kg administered, died at 6 h.
The mark [14] stands for this setting: 8 mg/kg administered, died at 6 h.

Consider two compounds from US20230331690A1, “THC DERIVATIVES, ORAL DOSAGE FORMS COMPRISING SAME, USES THEREOF FOR TREATING DISEASES AND DISORDERS AND SYNTHESIS THEREOF” (BAR-ILAN UNIVERSITY, priority 2020, published 2023).

Molecules are shown by their SMILES.

As to `CCCCCc1cc(O)c2c(c1)OC(C)(C)[C@@H]1CCC(CO)=C[C@@H]21` [11-OH-THC], in series [1], the “Component in the blood, mouse 1” value is on record as 2.40 ng/mL; the “Component in the blood, mouse 2” value was 2.44 ng/mL; the “Component in the blood, mouse 3” value is 2.10 ng/mL; the “Component in the blood, mouse 4” value is 3.43 ng/mL. Moreover, in series [1], the “Component in the blood, mouse 5” value stood at 2.27 ng/mL; the “Component in the blood, mouse 6” value came out at 2.37 ng/mL; the “Component in the blood, Average” value is 2.50 ng/mL. In series [2] (setting [6]), the “Component in the liver, mouse 1” value is reported as 6.56 ng/mL; the “Component in the liver, mouse 2” value turned out to be 23.90 ng/mL; the “Component in the liver, mouse 3” value was determined as 2.83 ng/mL; the “Component in the liver, Average” value is 11.10 ng/mL. For the same compound, in series [2] (setting [7]), the “Component in the liver, mouse 1” value is reported as 0.37 ng/mL; the “Component in the liver, mouse 2” value is given as 3.12 ng/mL; the “Component in the liver, mouse 3” value was 1.46 ng/mL. In addition, in series [3] (setting [8]), the “Average results, blood samples” value is 1.54 ng/mL. In series [3] (setting [9]), the “Average results, blood samples” value is 0.18 (2/2) ng/mL. Besides, in series [3] (setting [10]), the “Average results, blood samples” value is on record as 1.96 ng/mL. For the same compound, in series [3] (setting [11]), the “Average results, blood samples” value came out at 0.44 ng/mL. For the same compound, in series [4], the “Average results for 3 mice - brain samples” value is on record as 5.2 (2) ng/g. Besides, the “Average results for 3 mice (Table 13, liver)” value in series [5] (setting [12]) is recorded as 8.76 ng/g. For the same compound, the “Average results for 3 mice (Table 13, liver)” value in series [5] (setting [13]) is 41.89 ng/g. Further, the “Average results for 3 mice (Table 13, liver)” value in series [5] (setting [14]) is given as 22.94 ng/g. Also, the “Average results for 3 mice (Table 13, liver)” value in series [5] (8 mg/kg administered, died at 24 h, number in brackets = mice with a value) is reported as 5.57 (1) ng/g.

In the case of `CCCCCc1cc(O)c2c(c1)OC(C)(C)[C@@H]1CCC(C(=O)O)=C[C@@H]21` [11-COOH-THC, 11-nor-9-carboxy-THC], the “Component in the blood, mouse 1” value in series [1] is reported as 30.26 ng/mL. Besides, in series [1], the “Component in the blood, mouse 2” value amounted to 22.27 ng/mL. Moreover, in series [1], the “Component in the blood, mouse 3” value turned out to be 20.76 ng/mL. In series [1], the “Component in the blood, mouse 4” value was 32.18 ng/mL. The “Component in the blood, mouse 5” value in series [1] is given as 25.30 ng/mL. In series [1], the “Component in the blood, mouse 6” value amounted to 19.81 ng/mL. Moreover, the “Component in the blood, Average” value in series [1] turned out to be 25.10 ng/mL. Besides, the “Component in the liver, mouse 1” value in series [2] (setting [6]) is given as 38.89 ng/mL. The “Component in the liver, mouse 2” value in series [2] (setting [6]) is listed as 33.82 ng/mL. Moreover, the “Component in the liver, mouse 3” value in series [2] (setting [6]) is on record as 25.34 ng/mL; in series [2] (setting [7]), 1.49 ng/mL. The “Component in the liver, Average” value in series [2] (setting [6]) was 32.68 ng/mL. For the same compound, the “Average results, blood samples” value was 11.87 ng/mL in series [3] (setting [8]); 1.39 (4/4) ng/mL in series [3] (setting [9]); 0.41 (2/2) ng/mL in series [3] (4 mg/kg administration, Time 6 h); 15.85 ng/mL in series [3] (setting [10]); 3.44 ng/mL in series [3] (setting [11]); 3.57 ng/mL in series [3] (8 mg/kg administration, Time 6 h). The “Average results, blood samples” value in series [3] (8 mg/kg administration, Time 12 h (3 mice)) turned out to be 1.89 ng/mL. Also, the “Average results for 3 mice - brain samples” value in series [4] is on record as 2.04 (1) ng/g. The “Average results for 3 mice (Table 13, liver)” value in series [5] (setting [12]) is 3.83 ng/g; in series [5] (setting [13]), 46.06 ng/g; in series [5] (4 mg/kg administered, died at 24 h, number in brackets = mice with a value), 2.89 (1) ng/g; in series [5] (setting [14]), 60.95 ng/g.
